Results on one compound are retold here after patent US12611438B2, “Antiviral composition comprising a nucleolin-binding peptide” (ANYGEN CO., LTD., priority 2021, dated 2026).

As a reminder, the IC50 is the concentration needed to halve the response being measured. Usually CC50 stands for the concentration at which the toxic effect on the cells reaches its halfway point.

Molecules are shown by their SMILES.

For data set [1], the system named is SARS-COV-2. The settings on record: 24 h.
Data set [2] can be described thus: MTT cytotoxicity assay, Vero cells. The settings on record: African green monkey.

`CC[C@H](C)[C@H](NC(=O)[C@H](CCCNC(=N)N)NC(=O)[C@H](CC(C)C)NC(=O)[C@@H](NC(=O)[C@H](CCCNC(=N)N)NC(=O)[C@H](CCSC)NC(=O)[C@@H](NC(=O)[C@@H](N)CCCNC(=N)N)[C@@H](C)CC)[C@@H](C)CC)C(=O)N[C@@H](CC(C)C)C(=O)N[C@@H](CCCCN)C(=O)N[C@@H](CC(C)C)C(=O)N[C@@H](C)C(=O)N[C@@H](CCCNC(=N)N)C(=O)NCCCC[C@H](NC(=O)[C@H](CCCNC(=N)N)NC(=O)[C@H](C)NC(=O)[C@H](CC(C)C)NC(=O)[C@H](CCCCN)NC(=O)[C@H](CC(C)C)NC(=O)[C@@H](NC(=O)[C@H](CCCNC(=N)N)NC(=O)[C@H](CC(C)C)NC(=O)[C@@H](NC(=O)[C@H](CCCNC(=N)N)NC(=O)[C@H](CCSC)NC(=O)[C@@H](NC(=O)[C@@H](N)CCCNC(=N)N)[C@@H](C)CC)[C@@H](C)CC)[C@@H](C)CC)C(=O)N[C@@H](CSSC[C@H](NC(=O)[C@H](CCCCNC(=O)CCOCCOCCOCCOCCOCCOCCNC(=O)[C@H](CCCCN)NC(=O)[C@H](CC(C)C)NC(=O)[C@H](Cc1ccc(O)cc1)NC(=O)[C@@H](NC(=O)[C@H](CCSC)NC(=O)[C@H](C)NC(=O)CNC(=O)[C@H](Cc1c[nH]cn1)NC(=O)[C@@H](N)CCCNC(=N)N)C(C)C)NC(=O)CCOCCOCCOCCOCCOCCOCCNC(=O)[C@H](CCCCN)NC(=O)[C@H](CC(C)C)NC(=O)[C@H](Cc1ccc(O)cc1)NC(=O)[C@@H](NC(=O)[C@H](CCSC)NC(=O)[C@H](C)NC(=O)CNC(=O)[C@H](Cc1c[nH]cn1)NC(=O)[C@@H](N)CCCNC(=N)N)C(C)C)C(=O)O)C(=O)O` [AGM-330d-dCPP] displayed an IC50 in data set [1] of 5.2 µM. The compound further yielded a CC50 at 24 h in data set [2] of 7.73 µM.
